Laboratory results reported in US12564622B2, “Preventing cytokine release syndrome” (priority 2017, dated 2026).
Several values for one entry are separate records, joined by “and”; a condition that tells them apart may be missing. Equal entries are not always repeated. Entries after “also recorded” stand apart in the source; their conditions may differ.

Tests used:
[1] = system: Eμ-ALL bearing C57BL/6 mice treated with mCART19; assay: mCART19 treatment of syngeneic Eμ-ALL B-ALL model; format: in vivo, mouse (C57BL/6); conditions: for catecholamine and cytokine release: 24 and 72 hours after mCART19; for therapeutic (antitumor) efficacy versus mCART19 alone: prophylaxis with ANP pump or metyrosine IP
Protocol: The Eμ-ALL cell line was derived from a lymphoid malignancy in an Eμ-myc transgenic mouse and upon IV injection, can develop B-ALL in C57BL/6 mice. The Eμ-ALL cells were co-cultured with feeder NIH-3T3 cells that were irradiated at 60 Gy, in RPMI 1640 media supplemented with 10% FBS, 0.05 mM 2-Mercaptoethanol and antibiotics. Eμ-ALL cells were transfected with luciferase via lentivirus. 2×10^6 Eμ-ALL cells were IV injected in female 6-8 week-old C57BL/6 mice via tail vein and after 6 days, mice were IP injected with cyclophosphamide (CPA) at 100 mg/kg for pre-conditioning as described elsewhere (see, e.g., Davila et al., 2013 PLoS One 8:e61338). One day after CPA treatment, 10×10^6 mCART19 cells were IV injected in the mice. Metyrosine was injected IP at 40 mg/kg/day for three days before the mCART19 injection. On the day of mCART19 injection, a fourth dose of 40 mg/kg was given IP and the mice were subsequently injected four more times at daily intervals at 30 mg/kg. One day before mCART19 injection, mini-osmotic pumps (ALZET) loaded with hANP with a release rate of 12 μg/day were implanted subcutaneously in the back of mice. Tumor load was monitored by Xenogen before and after mCART19 injection.

[2] = system: polymicrobial peritoneal sepsis induced by CLP; assay: Cecal ligation and puncture (CLP) sepsis; format: in vivo, mouse (C57BL/6); conditions: for circulating pro-inflammatory cytokines after CLP: pre-treatment
Protocol: (§1) Cecal ligation and puncture (CLP) was performed as described elsewhere (Rittirsch et al., 2009 Nature Protocols, 4:31-6). Briefly, six-to-eight week old female C57BL/6 mice were anesthetized and following abdominal incision, the cecum was ligated at about 14 the distance from the luminal entry to its tip. The ligated cecum was punctured through and through with a 22 G needle at ½ and ¾ the distance from the luminal entry to its tip. A small amount of the cecal content was gently pushed out of the four openings into the peritoneum. Subsequently, the abdominal muscles were sutured and the skin was closed with two staples. Five hundred microliters of saline were immediately injected subcutaneously to the mice. For the groups treated with antibiotics, imipenem (Sigma) was injected subcutaneously at 25 mg/kg starting from 20 hours after CLP, with a schedule of twice a day on day one and once a day thereafter for 10 days. Human ANP (Sigma) was dissolved in saline, loaded in mini-osmotic pumps (ALZET) with a release rate of 12 μg/day and implanted subcutaneously in the back of mice 12 hours before the CLP, with pumps loaded with saline serving as controls. Metyrosine was freshly dissolved in PBS and injected IP at 60 mg/kg/day for three days before the CLP. Twenty minutes before the CLP, metyrosine was injected at 60 mg/kg IP into the right side. The control groups were injected with PBS. For the following 4 days, metyrosine was injected at 30 mg/kg/day IP into the right side. Hydration of mice was supported by daily subcutaneous injection of 0.5 ml saline.
as §1, with “CLP” for “Cecal ligation and puncture (CLP)”, “(see, e.g., Rittirsch” for “(Rittirsch”, “2008 Rev Immunol 8:776-787).” for “2009 Nature Protocols, 4:31-6).”, “6-8 weeks” for “six-to-eight week”, “¼” for “14”, “days.” for “days. Human ANP (Sigma) was dissolved in saline, loaded in mini-osmotic pumps (ALZET) with a release rate of 12 μg/day and implanted subcutaneously in the back of mice 12 hours before the CLP, with pumps loaded with saline serving as controls.”

[3] = system: mouse peritoneal macrophages; assay: Peritoneal macrophage catecholamine and cytokine production; format: cell-based; conditions: for cytokine release: ANP 5 μg/ml or metyrosine 2 mM
Protocol: Isolation of elicited macrophages from mouse peritoneum followed previously described procedures with minor modifications (Zhang et al., “The isolation and characterization of murine macrophages,” Curr Protoc Immunol Chapter 14, Unit 14.1 (November, 2008)). Four days prior to the harvest, 1 ml of 3% Brewer's thioglycollate medium (BD) was injected IP in female 2-3 months old BALB/c mice. Mice were euthanized by cervical dislocation and the skin of the belly was cut open without penetrating the muscle layer. Using a syringe with a 22 G needle, 5 ml of cold PBS containing 5 mM EDTA was injected carefully into the peritoneal cavity. After massaging gently for 1-2 minutes, a 1-ml syringe without needle was used to extract the peritoneal contents containing residential macrophages. Cells were centrifuged at 400 g for 10 minutes at 4° C., resuspended in DMEM/F12 medium supplemented with 1% FBS and antibiotics and distributed in 48-well plates at a concentration of 0.5×10^6 cells/well. After incubation at 37° C. for 2 hours, cells were rinsed three times with 0.5 ml media and then 250 μl of media was added to each well. […] For stimulation, the cells were incubated for 24 hours with LPS at 50 μg/ml. […] To stimulate macrophages, they were exposed to epinephrine at 15 ng/ml for 24 hours at 37° C. After the incubation, supernatants were collected from the wells and mixed with 5 mM EDTA and 4 mM sodium metabisulfite for preservation of catecholamines and stored at −80° C. […] Thus, any epinephrine identified in the media must have been secreted by cells in the last 24 hours prior to harvesting the media.
Isolation of elicited macrophages from mouse peritoneum followed previously described procedures with minor modifications66. Four days prior to the harvest, 1 ml of 3% Brewer's thioglycollate medium (BD) was injected IP in female 2-3 months old BALB/c mice or 4-6 weeks old conditional TH knockout mice. Mice were euthanized by cervical dislocation and the skin of the belly was cut open without penetrating the muscle layer. Using a syringe with a 25 G needle, 5 ml of cold PBS containing 5 mM EDTA was injected carefully into the peritoneal cavity. After massaging gently for 1-2 minutes, a 1-ml syringe without needle was used to extract the peritoneal contents containing residential macrophages. Cells were centrifuged at 400 g for 10 minutes at 4° C., resuspended in DMEM/F12 medium supplemented with 1% FBS and antibiotics and distributed in 48-well plates at a concentration of 0.5×10^6 cells/well. After incubation at 37° C. for 2 hours, cells were rinsed three times with 0.5 ml media and then 250 μl of media was added to each well. […] For stimulation, the cells were incubated for 24 hours with LPS at 50 μg/ml. […] To stimulate macrophages, they were exposed to epinephrine at 15 ng/ml for 24 hours at 37° C. After the incubation, supernatants were collected from the wells and mixed with 5 mM EDTA and 4 mM sodium metabisulfite for preservation of catecholamines and stored at −80° C. […] Thus, any epinephrine identified in the media must have been secreted by cells in the last 24 hours prior to harvesting the media.

[4] = system: Raji-bearing NSGS mice with low tumour burden treated with hCART19; assay: hCART19 treatment of Raji-bearing NSGS mice, low tumour burden; format: in vivo, mouse (NSGS); conditions: for hCART19-induced catecholamines and human and mouse cytokines: metyrosine IP or ANP by osmotic pump; for prevention of CRS (mouse cytokines IL-6, KC, MIP-2): with hCART19
From the text: Six to eight weeks old female NSG-SGM3 (NSGS) mice (NOD.Cg-Prkdcscid Il2rgtm1WjlTg (CMV-IL3, CSF2, KITLG) 1Eav/MloySzJ, Stock #013062) were purchased from the Jackson Laboratory. Raji cells were transfected with a luciferase construct via lentivirus to create Raji-luc cells. NSGS is a triple transgenic strain expressing human IL3, GM-CSF and SCF combine the features of the highly immunodeficient NOD scid gamma (NSG) mouse. One day before the injection of Raji cells, mice were irradiated at a dose of 2 Gy in a CIXD Xstahl device. In high tumor burden experiments in FIG. 5, 10^6 Raji-luc cells were injected IV via tail vein. Six days later, tumor loads were assessed using a Xenogen instrument and 15×10^6 hCART19 cells or untransduced T-cells were injected IV. In low tumor burden experiments in FIG. 6, 2×10^5 Raji-luc cells were injected IV via tail vein. Four days later, tumor loads were assessed using a Xenogen instrument and 15×10^6 hCART19 cells were injected IV. Metyrosine was injected IP at 60 mg/kg/day for three days before the hCART19 injection. On the day of CART19 injection, a fourth dose of 60 mg/kg was given IP and the mice were subsequently injected four more times at daily intervals at 30 mg/kg.

[5] = LPS 50 μg/ml, 24 hours, pre-incubation 10 minutes with ANP 5 μg/ml or metyrosine 2 mM
[6] = LPS, epinephrine or the combination of both, metyrosine 2 mM

Structure (SMILES) | catecholamine and cytokine release [1] | therapeutic (antitumor) efficacy versus mCART19 alone [1] | circulating pro-inflammatory cytokines after CLP ([2]; 24 hours after CLP) | mice surviving CLP (acute phase) ([2]; metyrosine IP pre-treatment) | fraction of mice surviving CLP ([2]; metyrosine pre-treatment plus imipenem from 20 hours after CLP) | cytokine release ([3]; LPS 50 μg/ml, 24 hours) | catecholamine production [3, 5] | catecholamines produced [3, 6] | cytokines released [3, 6] | animals with tumors eradicated (BLI below 10^6), day 6 ([4]; hCART19 plus metyrosine) | animals with tumors eradicated (BLI below 10^6), day 19 ([4]; hCART19 plus metyrosine) | reduction of lymphoma burden within one week versus hCART19 controls ([4]; hCART19 plus metyrosine, BLI) | long-term survival ([4]; low tumour burden) [%] | hCART19-induced catecholamines and human and mouse cytokines ([4]; low tumour burden) | prevention of CRS (mouse cytokines IL-6, KC, MIP-2) [4] | survival after CLP ([2]; ANP by osmotic pump implanted 12 hours before CLP) | pathologic examination (peritoneum, lungs, liver) ([2]; ANP pre-treated, 24 hours after CLP) | catecholamine production ([3]; epinephrine 15 ng/ml stimulated, ANP pre-treatment) | catecholamine and cytokine (IL-6, TNF-α, MIP-2, KC) production ([3]; epinephrine alone 15 ng/ml) | amplified inflammatory response ([3]; epinephrine in combination with LPS)
C[C@](N)(Cc1ccc(O)cc1)C(=O)O [metyrosine, α-methyl-tyrosine] | reduced | matched the therapeutic efficacy | substantially reduced | 20% and 22% | > ⅔ | similarly inhibited | greatly reduced; also recorded: effectively blocked | greatly reduced | diminished | 6 out of 10 | 4 out of 10 | significantly more so | 40 | reduced | effective at preventing CRS |  |  |  |  | 
CC[C@H](C)[C@@H]1NC(=O)[C@H](CCCNC(=N)N)NC(=O)[C@H](CC(=O)O)NC(=O)[C@H](CCSC)NC(=O)[C@H](CCCNC(=N)N)NC(=O)CNC(=O)CNC(=O)[C@H](Cc2ccccc2)NC(=O)[C@@H](NC(=O)[C@H](CO)NC(=O)[C@H](CO)NC(=O)[C@H](CCCNC(=N)N)NC(=O)[C@H](CCCNC(=N)N)NC(=O)[C@H](CC(C)C)NC(=O)[C@@H](N)CO)CSSC[C@@H](C(=O)N[C@@H](CC(N)=O)C(=O)N[C@@H](CO)C(=O)N[C@@H](Cc2ccccc2)C(=O)N[C@@H](CCCNC(=N)N)C(=O)N[C@@H](Cc2ccc(O)cc2)C(=O)O)NC(=O)CNC(=O)[C@H](CC(C)C)NC(=O)CNC(=O)[C@H](CO)NC(=O)[C@H](CCC(N)=O)NC(=O)[C@H](C)NC(=O)CNC1=O [ANP, atrial natriuretic peptide] | reduced | matched the therapeutic efficacy | greatly reduced |  |  | reduction in the cytokine levels | reduce the production of all three major catecholamines; also recorded: suppress the increased production; also recorded: effectively blocked |  |  |  |  |  |  | abrogated | effective at preventing CRS | almost half of the animals survived the acute phase | less peritoneal inflammation, pulmonary septal thickening, and hepatic inflammation; also recorded: lower or absent pulmonary septal thickening and vacuolization | inhibited this production | also suppressed | inhibited
